One experiment concerns COLO-205. Kind of experiment: Cell growth inhibition, SRB assay. The experiment is classed as cell-based, human. To be noted: Homo sapiens; Colon COLO-205, 3% FBS. On the procedure:
(§1) Compounds were dissolved in DMSO and further diluted in cell culture medium for the experiments performed. Cells were seeded into 96-well plates with 1,500-5,000 cells/well according to cell growth rate. After 24 h, DMEM medium containing 10% FBS were changed to DMEM containing 3% FBS for cancer cells and additional 3% FBS were added into the culture medium for normal cells. The compound was added into the cell culture at the indicated concentrations, and the final concentration of DMSO was adjusted to a final concentration of 0.1%. Cells were subjected to either normoxic condition (20% O2) for 6 days or hypoxic condition (0.2% O2) for 2 days and then transferred to normoxic condition for 4 days. Cell viability was assessed by Sulforhodamine B (SRB) assay at Day 6.
(§2) Sulforhodamine B (SRB) (Sigma, Oakville, ON, Canada) is a water-soluble dye that binds to the basic amino acids of the cellular proteins. Thus, colorimetric measurement of the bound dye provides an estimate of the total protein mass that is related to the cell number. The cells were fixed in situ by gently aspirating off the culture media and adding 50 ul of cold 10% trichloroacetic Acid (TCA) per well and incubated at 4° C. for 30-60 min. The plates were washed five times with water and allowed to air dry for 5 min. 50 ul of 0.4% (w/v) SRB dissolved in 1% (v/v) acetic acid were added into each well, plates were then incubated at RT for 30 min for staining, washed four times with 1% acetic acid to remove any unbound dye and then allowed to air dry for 5 min. Stain was solubilized with 100 ul of 10 mM Tris pH 10.5 per well. Absorbance was read at 570 nm on a spectrophotometer. GI50 (compound concentration required for 50% of growth inhibition) was calculated using GraphPad Prism 4.0 software (GraphPad Software, Inc., San Diego, Calif., USA).
(§3) Cell viability of various cell lines treated with 3-carboxy-N,N,N-trimethyl-2-pentadecanamidopropan-1-aminium (“nPAC”) and compound of Examples S7, S63, S66, S90, S89, S67, S75 and S10 was also assessed in a manner as described above in Example 5.

The test system of the next experiment is Hs578T. In words: Cell growth inhibition, SRB assay. The experiment is classed as cell-based, human. To be noted: Homo sapiens, Hs-578T; Breast Hs578T, 3% FBS. The method, then:
as §1, §2, §3

The next experiment has as its system HCT-15. In words: Cell growth inhibition, SRB assay. It counts as cell-based, human. To be noted: Homo sapiens; Colon HCT-15, 3% FBS. On the procedure: as §1, §2, §3
A further experiment has as its system SW480. In words: Cell growth inhibition, SRB assay. The experiment is classed as cell-based, human. To be noted: Homo sapiens; Colon SW480, 3% FBS. The method, then: as §1, §2, §3
In the next experiment the test system is MDA-231. Kind of experiment: Cell growth inhibition, SRB assay. To be noted: Homo sapiens, MDA-MB-231; Breast MDA-231, 3% FBS. The experiment is classed as cell-based, human. The method, then: as §1, §2, §3
Another experiment relates to A54. In words: Cell growth inhibition, SRB assay. It counts as cell-based, human. Conditions: Homo sapiens; Lung A54, 3% FBS. The method, then: as §1, §2, §3
The next experiment concerns SW620. In words: Cell growth inhibition, SRB assay. The experiment is classed as cell-based, human. To be noted: Homo sapiens, SW-620; Colon SW620, 3% FBS. On the procedure: as §1, §2, §3
For a further experiment, the system named is HCT116 p53+/+. Kind of experiment: Cell growth inhibition, SRB assay. It counts as cell-based. To be noted: Homo sapiens, HCT-116, mean±SD of 2 experiments (FIG. 2). The method, then: (§4) Human cancer cells (MCF-7, H358, H460, HCT116 p53^+/+, HCT116 p53^−/−, A172, PC-3, DU-145 and SW626) were maintained in DMEM medium containing 10% Fetal Bovine Serum (FBS) (Invitrogen, Burlington, ON, Canada) and normal cells HMEC, 184A1, NHBE and PrEC were cultured in MEGM, MEGM plus transferring and cholera toxin, BEGM and PrEGM supplemented with various growth factors (Cambrex, Charles city, IA, USA), respectively.
as §1, §2

The test system of the next experiment is HCT116 p53−/−. In words: Cell growth inhibition, SRB assay. The experiment is classed as cell-based. Conditions: Homo sapiens, HCT-116, mean±SD of 2 experiments (FIG. 2). On the procedure: as §4, §1, §2
A further experiment deals with DU-145. In words: Cell growth inhibition, SRB assay. The experiment is classed as cell-based. To be noted: Homo sapiens, mean±SD of 2 experiments (FIG. 2). The method, then:
as §4, §1, §2

The test system of another experiment is H460. Kind of experiment: Cell growth inhibition, SRB assay. It counts as cell-based. Conditions: Homo sapiens. The method, then:
as §4, §1, §2

Experiment [1] relates to normal cells, including human mammary epithelial cell line 184A1 and human primary epithelial cells HMEC (mammary); NHBE (lung) and PrEC (prostate). In words: Growth of normal cells, SRB assay. To be noted: 184A1, HMEC, SRB assay (FIG. 2B). It counts as cell-based. On the procedure: as §4, §1
(§5) Sulforhodamine B (SRB) (Sigma, Oakville, ON, Canada) is a water-soluble dye that binds to the basic amino acids of the cellular proteins. […] Absorbance was read at 570 nm on a spectrophotometer. […]

For a further experiment, the system named is HCT116. In words: Cell growth inhibition, SRB assay, normoxia and hypoxia. It counts as cell-based. To be noted: Homo sapiens. The method, then:
as §4, §1, §5

A further experiment deals with Caov-3. Kind of experiment: Cell growth inhibition, SRB assay. It counts as cell-based, human. To be noted: Homo sapiens; Ovarian Caov-3, 3% FBS. The method, then:
as §1, §2, §3

The structures appear in SMILES notation. Where two headings read alike, the source gives them in different places.

For `CCCCCCCCCCc1ccc(C(=O)N[C@H](CC(=O)[O-])C[N+](C)(C)C)cc1` [Example S66, (R)-3-(4-decylbenzamido)-4-(trimethylammonio)butanoate], the GI50 in the experiment with COLO-205 worked out at 0.4 µM; in the experiment with Hs578T, 8.2 µM; in the experiment with HCT-15 it was 1.1 µM; in the experiment with SW480 it was 0.3 µM; in the experiment with MDA-231, 9.4 µM; in the experiment with A54, 28 µM. The molecule also displayed a GI50 in the experiment on SW620 of 0.6 µM.

`CCCCCCCCCCOc1ccc(C(=O)N[C@H](CC(=O)O)C[N+](C)(C)C)cc1` [Example S63, (R)-3-(4-(decyloxy)benzamido)-4-(trimethylammonio)butanoate 2,2,2-trifluoroacetate]: the GI50 in the experiment on COLO-205 is 0.3 µM; in the experiment on Hs578T, 3.7 µM; with HCT-15, 0.5 µM; in the experiment on SW480, 0.4 µM; in the experiment on MDA-231, 8.5 µM; with A54, 14 µM. For the same molecule, the GI50 in the experiment with SW620 is 0.5 µM.

In the case of `CCCCCCCCc1ccc(NC(=O)N[C@H](CC(=O)[O-])C[N+](C)(C)C)cc1` [Example S7, (R)-3-(3-(4-octylphenyl)ureido)-4-(trimethylammonio)butanoate], the GI50 in the experiment with HCT116 p53+/+ was 9.3 ± 1.7 µM; in the experiment on HCT116 p53−/−, 13 ± 0.8 µM; in the experiment on DU-145, 24 ± 2.8 µM; in the experiment on H460 (NCI-H460, 144 h, H460, normoxic condition (20% O2) for 6 days, read-out: GI50 Normoxi), 8.8 ± 1.2 µM; in the experiment with H460 (NCI-H460, H460, hypoxic condition (0.2% O2) for 2 days, then normoxic for 4 days, read-out: GI50 Hypoxia), 2.6 ± 0.6 µM; in the experiment on H460 (NCI-H460, SRB assay, mean±SD of 2 experiments (FIG. 2), read-out: GI50 for H460), 8.8 ± 2 µM. Besides, the GI50 in the experiment with HCT116 (HCT-116, 144 h, normoxic condition (20% O2) for 6 days, read-out: GI50 Normoxi) amounted to 9.3 ± 0.7 µM; in the experiment with HCT116 (HCT-116, hypoxic condition (0.2% O2) for 2 days, then normoxic for 4 days, read-out: GI50 Hypoxia), 5.7 ± 0.6 µM; in the experiment with COLO-205, 0.9 µM; in the experiment with Hs578T, 33 µM; with HCT-15, 1.3 µM; in the experiment on SW480, 0.8 µM. Further, the concentration for 50% growth inhibition (GI50) in the experiment with MDA-231 was 27 µM; with A54, 25 µM; in the experiment on Caov-3, 1.3 µM; with SW620, 1.5 µM. The “growth inhibition of normal cells” value in experiment [1] is “inhibits growth of cancer cells but not normal cells”.

Take `CCCCCCCCCCc1ccc(S(=O)(=O)N[C@H](CC(=O)O)C[N+](C)(C)C)cc1` [Example S75, (R)-3-carboxy-2-(4-decylphenylsulfonamido)-N,N,N-trimethylpropan-1-aminium 2,2,2-trifluoroacetate]: the GI50 with COLO-205 is 3.6 µM; in the experiment on Hs578T it was 13 µM; in the experiment with HCT-15, 5.6 µM; in the experiment on SW480 it was 1.9 µM; in the experiment on A54, 31 µM; in the experiment with SW620, 4.1 µM.

Consider `CCCCCCCOc1ccc(NC(=O)N[C@H](CC(=O)[O-])C[N+](C)(C)C)cc1` [Example S10, (R)-3-(3-(4-(heptyloxy)phenyl)ureido)-4-(trimethylammonio)butanoate], for which the GI50 with COLO-205 was 4.6 µM; with Hs578T, more than 50 µM; in the experiment with HCT-15, 28 µM; in the experiment with SW480, 9.3 µM; in the experiment on MDA-231, more than 50 µM; in the experiment on A54, more than 50 µM. Moreover, the results for the GI50 with Caov-3 and with SW620 were 13 µM and 19 µM, respectively.

For the molecule `CCCCCCCCCCOc1cccc(C(=O)N[C@H](CC(=O)[O-])C[N+](C)(C)C)c1` [Example S67, (R)-3-(3-(decyloxy)benzamido)-4-(trimethylammonio)butanoate], the GI50 in the experiment with COLO-205 turned out to be 2.7 µM; with Hs578T, 17 µM; in the experiment on HCT-15, 14 µM; in the experiment on SW480, 0.7 µM; with A54 it was 88 µM; with Caov-3, 0.8 µM. This molecule gave a GI50 in the experiment on SW620 of 5.5 µM.

Consider `CCCCCCCCCCCCCCc1ccc(NS(=O)(=O)N[C@H](CC(=O)O)C[N+](C)(C)C)cc1` [Example S90, (R)-3-(N-(4-tetradecylphenyl)sulfamoylamino)-4-(trimethylammonio)-butanoate], for which the GI50 in the experiment on COLO-205 came to 2.4 µM; in the experiment on Hs578T, 8.2 µM; in the experiment on HCT-15, 3.3 µM; with SW480, 1.3 µM; in the experiment with A54, 21 µM; in the experiment on Caov-3, 1.6 µM. For the same molecule, the GI50 in the experiment with SW620 turned out to be 2.4 µM.

As to `CCCCCCCCCCCCc1ccc(NS(=O)(=O)N[C@H](CC(=O)O)C[N+](C)(C)C)cc1` [Example S89, (R)-3-(N-(4-dodecylphenyl)sulfamoylamino)-4-(trimethylammonio)-butanoate], the GI50 came out at 1.4 µM in the experiment on COLO-205; 7.3 µM with Hs578T; 2.2 µM in the experiment on HCT-15; 1.5 µM with SW480; 21 µM in the experiment on A54; 1.5 µM in the experiment on Caov-3. Further, it took 1.9 µM to inhibit growth with SW620 by half (GI50).

Values taken from US8410150B2, “Inhibitors of carnitine palmitoyltransferase and treating cancer” (University Health Network, priority 2007, dated 2013).
